Laboratory results from patent US11065257B2, “Substituted pyrazoloazepin-4-ones and their use as phosphodiesterase inhibitors” (LEO Pharma A/S, priority 2016, dated 2021).

Each molecule was assayed against T1, human PDE4D catalytic domain (Homo sapiens, UniProt Q08499) (assay: PDE4 Assay). Details: human PDE4D catalytic domain (S380-L740), TR-FRET with FAM-cAMP; expressed as a range of IC50; read-out: PDE4 Potency Range.
T1 construct: UniProt no; Q08499 [S380-L740]
Assay type: biochemical
Experimental: The human PDE4D catalytic domain (UniProt no. Q08499 [S380-L740]) was incubated with a mixture of non-labelled cAMP (cyclic adenosine monophosphate) and fluorescein amidite (FAM) conjugated cAMP and titrated test or reference compound. Following brief incubation the enzymatic reaction was stopped by addition of binding buffer containing nanoparticles with immobilized trivalent metal ions capable of binding 1) AMP phospho groups and 2) terbium (Tb) donor fluorophores. Subsequent excitation of the Tb donor triggers time-resolved FRET to adjacent FAM acceptor molecules resulting in light emission. In the presence of a PDE4 inhibitor, AMP generation was reduced resulting in a lower fluorescence signal. The cAMP phosphodiester is not bound by the detection system.
The results were calculated as the molar concentrations resulting in 50% inhibition of the substrate cleavage compared to controls samples, and are expressed as a range of IC50 (nM).

T1 sequence (Q08499 380-740): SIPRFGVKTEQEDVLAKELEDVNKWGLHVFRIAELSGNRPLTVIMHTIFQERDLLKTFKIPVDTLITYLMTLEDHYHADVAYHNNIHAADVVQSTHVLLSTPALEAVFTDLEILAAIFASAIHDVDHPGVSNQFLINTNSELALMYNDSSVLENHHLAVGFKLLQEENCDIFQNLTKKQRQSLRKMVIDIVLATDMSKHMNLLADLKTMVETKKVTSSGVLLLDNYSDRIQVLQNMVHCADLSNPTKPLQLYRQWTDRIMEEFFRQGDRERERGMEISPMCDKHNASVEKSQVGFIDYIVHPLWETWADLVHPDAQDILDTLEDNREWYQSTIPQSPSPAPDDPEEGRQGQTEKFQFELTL

`CCc1nn(CCCOC(=O)c2ccn(C)n2)c2c1C(=O)NCC1(CCOCC1)C2` [Example 32, 3-(3-ethyl-4-oxo-spiro[6,8-dihydro-5H-pyrazolo[4,3-c]azepine-7,4′-tetrahydropyran]-1-yl)propyl 1-methylpyrazole-3-carboxylate] and `CCc1nn(CCCOC(=O)c2cn(C)cn2)c2c1C(=O)NCC1(CCOCC1)C2` [Example 39, 3-(3-ethyl-4-oxo-spiro[6,8-dihydro-5H-pyrazolo[4,3-c]azepine-7,4′-tetrahydropyran]-1-yl)propyl 1-methylimidazole-4-carboxylate] cannot be ordered by IC50: > 500 nM for the first, > 500 nM for the second.

`CCc1nn(CCCOC(=O)c2cc(C)n[nH]2)c2c1C(=O)NCC1(CCOCC1)C2` [Example 33, 3-(3-ethyl-4-oxo-spiro[6,8-dihydro-5H-pyrazolo[4,3-c]azepine-7,4′-tetrahydropyran]-1-yl)propyl 5-methyl-1H-pyrazole-3-carboxylate] and `CCc1nn(CCCOC(=O)c2cnc(C)[nH]2)c2c1C(=O)NCC1(CCOCC1)C2` [Example 36, 3-(3-ethyl-4-oxo-spiro[6,8-dihydro-5H-pyrazolo[4,3-c]azepine-7,4′-tetrahydropyran]-1-yl)propyl 2-methyl-1H-imidazole-4-carboxylate] fall in the same range of IC50: 100 to 500 nM for the first, 100 to 500 nM for the second.

`CCc1nn(CCCOC(=O)c2ccnn2C)c2c1C(=O)NCC1(CCOCC1)C2` [Example 35, 3-(3-ethyl-4-oxo-spiro[6,8-dihydro-5H-pyrazolo[4,3-c]azepine-7,4′-tetrahydropyran]-1-yl)propyl 2-methylpyrazole-3-carboxylate] and `CCc1nn(CCCOC(=O)c2cnn(C)c2)c2c1C(=O)NCC1(CCOCC1)C2` [Example 38, 3-(3-ethyl-4-oxo-spiro[6,8-dihydro-5H-pyrazolo[4,3-c]azepine-7,4′-tetrahydropyran]-1-yl)propyl 1-methylpyrazole-4-carboxylate] fall in the same range of IC50: 100 to 500 nM for the first, 100 to 500 nM for the second.

`CCc1nn(CCCOC(=O)c2nccn2C)c2c1C(=O)NCC1(CCOCC1)C2` [Example 40, 3-(3-ethyl-4-oxo-spiro[6,8-dihydro-5H-pyrazolo[4,3-c]azepine-7,4′-tetrahydropyran]-1-yl)propyl 1-methylimidazole-2-carboxylate] and `CCc1nn(CCCOC(=O)c2cncn2C)c2c1C(=O)NCC1(CCOCC1)C2` [Example 41, 3-(3-ethyl-4-oxo-spiro[6,8-dihydro-5H-pyrazolo[4,3-c]azepine-7,4′-tetrahydropyran]-1-yl)propyl 3-methylimidazole-4-carboxylate] fall in the same range of IC50: 100 to 500 nM for the first, 100 to 500 nM for the second.

`CCc1nn(CCCOC(=O)c2oncc2C)c2c1C(=O)NCC1(CCOCC1)C2` [Example 42, 3-(3-ethyl-4-oxo-spiro[6,8-dihydro-5H-pyrazolo[4,3-c]azepine-7,4′-tetrahydropyran]-1-yl)propyl 4-methylisoxazole-5-carboxylate] and `CCc1nn(CCCOC(=O)c2ocnc2C)c2c1C(=O)NCC1(CCOCC1)C2` [Example 47, 3-(3-ethyl-4-oxo-spiro[6,8-dihydro-5H-pyrazolo[4,3-c]azepine-7,4′-tetrahydropyran]-1-yl)propyl 4-methyloxazole-5-carboxylate] fall in the same range of IC50: 100 to 500 nM for the first, 100 to 500 nM for the second.

`CCc1nn(CCCOC(=O)c2cc(C)no2)c2c1C(=O)NCC1(CCOCC1)C2` [Example 43, 3-(3-ethyl-4-oxo-spiro[6,8-dihydro-5H-pyrazolo[4,3-c]azepine-7,4′-tetrahydropyran]-1-yl)propyl 3-methylisoxazole-5-carboxylate] and `CCc1nn(CCCOC(=O)c2cc(O)no2)c2c1C(=O)NCC1(CCOCC1)C2` [Example 52, 3-(3-ethyl-4-oxo-spiro[6,8-dihydro-5H-pyrazolo[4,3-c]azepine-7,4′-tetrahydropyran]-1-yl)propyl 3-hydroxyisoxazole-5-carboxylate] fall in the same range of IC50: 100 to 500 nM for the first, 100 to 500 nM for the second.

First: CCc1nn(CCCOC(=O)c2cc(C)on2)c2c1C(=O)NCC1(CCOCC1)C2 [Example 44, 3-(3-ethyl-4-oxo-spiro[6,8-dihydro-5H-pyrazolo[4,3-c]azepine-7,4′-tetrahydropyran]-1-yl)propyl 5-methylisoxazole-3-carboxylate]
Second: CCc1nn(CCCOC(=O)c2coc(C)n2)c2c1C(=O)NCC1(CCOCC1)C2 [Example 46, 3-(3-ethyl-4-oxo-spiro[6,8-dihydro-5H-pyrazolo[4,3-c]azepine-7,4′-tetrahydropyran]-1-yl)propyl 2-methyloxazole-4-carboxylate]
The IC50 of the first is lower: 100 to 500 nM for the first, > 500 nM for the second.

`CCc1nn(CCCOC(=O)c2conc2C)c2c1C(=O)NCC1(CCOCC1)C2` [Example 45, 3-(3-ethyl-4-oxo-spiro[6,8-dihydro-5H-pyrazolo[4,3-c]azepine-7,4′-tetrahydropyran]-1-yl)propyl 3-methylisoxazole-4-carboxylate] and `CCc1nn(CCCOC(=O)c2cnc(C)o2)c2c1C(=O)NCC1(CCOCC1)C2` [Example 48, 3-(3-ethyl-4-oxo-spiro[6,8-dihydro-5H-pyrazolo[4,3-c]azepine-7,4′-tetrahydropyran]-1-yl)propyl 2-methyloxazole-5-carboxylate] fall in the same range of IC50: 100 to 500 nM for the first, 100 to 500 nM for the second.

`CCc1nn(CCCOC(=O)c2cnnn2C)c2c1C(=O)NCC1(CCOCC1)C2` [Example 49, 3-(3-ethyl-4-oxo-spiro[6,8-dihydro-5H-pyrazolo[4,3-c]azepine-7,4′-tetrahydropyran]-1-yl)propyl 3-methyltriazole-4-carboxylate] and `CCc1nn(CCCOC(=O)c2ccsn2)c2c1C(=O)NCC1(CCOCC1)C2` [Example 53, 3-(3-ethyl-4-oxo-spiro[6,8-dihydro-5H-pyrazolo[4,3-c]azepine-7,4′-tetrahydropyran]-1-yl)propyl isothiazole-3-carboxylate] fall in the same range of IC50: 100 to 500 nM for the first, 100 to 500 nM for the second.

First: CCc1nn(CCCOC(=O)c2nnc(C)[nH]2)c2c1C(=O)NCC1(CCOCC1)C2 [Example 50, 3-(3-ethyl-4-oxo-spiro[6,8-dihydro-5H-pyrazolo[4,3-c]azepine-7,4′-tetrahydropyran]-1-yl)propyl 5-methyl-4H-1,2,4-triazole-3-carboxylate]
Second: CCc1nn(CCCOC(=O)c2nonc2C)c2c1C(=O)NCC1(CCOCC1)C2 [Example 51, 3-(3-ethyl-4-oxo-spiro[6,8-dihydro-5H-pyrazolo[4,3-c]azepine-7,4′-tetrahydropyran]-1-yl)propyl 4-methyl-1,2,5-oxadiazole-3-carboxylate]
The IC50 of the first is higher: > 500 nM for the first, 100 to 500 nM for the second. The second is the more potent here.

`CCc1nn(CCCOC(=O)c2ccns2)c2c1C(=O)NCC1(CCOCC1)C2` [Example 54, 3-(3-ethyl-4-oxo-spiro[6,8-dihydro-5H-pyrazolo[4,3-c]azepine-7,4′-tetrahydropyran]-1-yl)propyl isothiazole-5-carboxylate] and `CCc1nn(CCCOC(=O)c2cncs2)c2c1C(=O)NCC1(CCOCC1)C2` [Example 56, 3-(3-ethyl-4-oxo-spiro[6,8-dihydro-5H-pyrazolo[4,3-c]azepine-7,4′-tetrahydropyran]-1-yl)propyl thiazole-5-carboxylate] fall in the same range of IC50: 100 to 500 nM for the first, 100 to 500 nM for the second.

`CCc1nn(CCCOC(=O)c2cnsc2)c2c1C(=O)NCC1(CCOCC1)C2` [Example 55, 3-(3-ethyl-4-oxo-spiro[6,8-dihydro-5H-pyrazolo[4,3-c]azepine-7,4′-tetrahydropyran]-1-yl)propyl isothiazole-4-carboxylate] and `CCc1nn(CCCOC(=O)c2csnn2)c2c1C(=O)NCC1(CCOCC1)C2` [Example 57, 3-(3-ethyl-4-oxo-spiro[6,8-dihydro-5H-pyrazolo[4,3-c]azepine-7,4′-tetrahydropyran]-1-yl)propyl thiadiazole-4-carboxylate] fall in the same range of IC50: 100 to 500 nM for the first, 100 to 500 nM for the second.

`CCc1nn(CCCOC(=O)C2CCCOC2)c2c1C(=O)NCC1(CCOCC1)C2` (stereo not shown) [Example 58, 3-(3-ethyl-4-oxo-spiro[6,8-dihydro-5H-pyrazolo[4,3-c]azepine-7,4′-tetrahydropyran]-1-yl)propyl tetrahydropyran-3-carboxylate] and `CCc1nn(CCCOC(=O)C2CCOCC2)c2c1C(=O)NCC1(CCOCC1)C2` [Example 59, 3-(3-ethyl-4-oxo-spiro[6,8-dihydro-5H-pyrazolo[4,3-c]azepine-7,4′-tetrahydropyran]-1-yl)propyl tetrahydropyran-4-carboxylate] cannot be ordered by IC50: > 500 nM for the first, > 500 nM for the second.

`CCc1nn(CCCOC(=O)C2CCSC2)c2c1C(=O)NCC1(CCOCC1)C2` (stereo not shown) [Example 60, 3-(3-ethyl-4-oxo-spiro[6,8-dihydro-5H-pyrazolo[4,3-c]azepine-7,4′-tetrahydropyran]-1-yl)propyl tetrahydrothiophene-3-carboxylate] and `CCc1nn(CCCOC(=O)c2ccc(C)cn2)c2c1C(=O)NCC1(CCOCC1)C2` [Example 61, 3-(3-ethyl-4-oxo-spiro[6,8-dihydro-5H-pyrazolo[4,3-c]azepine-7,4′-tetrahydropyran]-1-yl)propyl 5-methylpyridine-2-carboxylate] fall in the same range of IC50: 100 to 500 nM for the first, 100 to 500 nM for the second.

`CCc1nn(CCCOC(=O)c2ncccc2C)c2c1C(=O)NCC1(CCOCC1)C2` [Example 62, 3-(3-ethyl-4-oxo-spiro[6,8-dihydro-5H-pyrazolo[4,3-c]azepine-7,4′-tetrahydropyran]-1-yl)propyl 3-methylpyridine-2-carboxylate] and `CCc1nn(CCCOC(=O)c2cc(C)ccn2)c2c1C(=O)NCC1(CCOCC1)C2` [Example 63, 3-(3-ethyl-4-oxo-spiro[6,8-dihydro-5H-pyrazolo[4,3-c]azepine-7,4′-tetrahydropyran]-1-yl)propyl 4-methylpyridine-2-carboxylate] cannot be ordered by IC50: > 500 nM for the first, > 500 nM for the second.

With `CCc1nn(CCCOC(=O)c2cccc(C)n2)c2c1C(=O)NCC1(CCOCC1)C2` [Example 64, 3-(3-ethyl-4-oxo-spiro[6,8-dihydro-5H-pyrazolo[4,3-c]azepine-7,4′-tetrahydropyran]-1-yl)propyl 6-methylpyridine-2-carboxylate] the IC50 was > 500 nM.
